The text below walks through data of PMC11550998, “Novel 5-HT7 receptor antagonists modulate intestinal immune responses and reduce severity of colitis” (American Journal of Physiology - Gastrointestinal and Liver …, 2024).

In data set [1] the target is T1, h5-HT7D expressed in U2OS cells (Homo sapiens, UniProt P34969).
T1 construct: host or cells: U2OS
The experiment in a line: 5-HT7 functional assay (cAMP Hunter eXpress GPCR luminescence assay). The data set is classed as cell-based. The note with it: antagonist, cAMP production stimulated by 150 nM 5-HT (EC80), Cheng-Prusoff. As to the method:
The potencies of MC-170073, […], and MC-230079 as 5-HT7 antagonists were determined using the cAMP Hunter eXpress GPCR luminescence assay (DiscoveRx, 95-0163E3) and the manufacturer’s protocol. Cryopreserved U2OS cells expressing h5-HT7D were seeded into 96-well white-walled clear bottom tissue culture-treated plates (31,250 cells/well) and were allowed to recover for 16 h at 37°C in a humidified incubator with 5% CO2. The media was aspirated and replaced with 30-µL cell assay buffer (CAB). Cells were preincubated at 37°C for 15 min with 7.5 µL of 6× final concentration of 5 to 10 concentrations in triplicate of test compounds in CAB. Cells were then stimulated for 30 min at 37°C with 7.5 µL of 900 nM of the full agonist 5-HT in cell assay buffer (final concentration 150 nM; an EC80). cAMP levels/well were determined at room temperature by adding 15 µL of cAMP antibody and 60 µL of cAMP working detection solution, followed by the addition of 60 µL of solution A after 1 h incubation. Luminescence was read 16 h later with an EnVision multilabel plate reader. The IC50 of test compounds was calculated using GraphPad’s Prism 5 (GraphPad Software, La Jolla, CA) nonlinear curve-fitting program. The equilibrium dissociation constant for the competitive antagonists (KB) values was determined using the Cheng-Prusoff equation.
In general terms: Cyclic AMP is a second messenger, typically raised through Gs and lowered through Gi signalling.

The target of data set [2] is 5-HT1A, 5-HT1B, 5-HT1D, 5-HT1E, 5-HT2A, 5-HT2B, 5-HT2C, 5-HT3, 5-HT4, 5-HT5A, and 5-HT6. The data set can be described thus: Off-target assessment at other 5-HT receptors (PDSP). The data set is classed as binding. The note with it: 1B, 1D, 1E, 2A, 2B, 2C, 3, 4, 5A, 6. As to the method: In vitro assessments of MC-170073, MC-20078, and MC-230079 activity at the following targets were determined using the assay systems available through the Psychoactive Drug Screening Program (PDSP). Detailed protocols for each assay are available at https://pdsp.unc.edu/pdspweb/?site=assays. Receptors 5-HT1A, 5-HT1B, 5-HT1D, 5-HT1E, 5-HT2A, 5-HT2B, 5-HT2C, 5-HT3, 5-HT5A, 5-HT6, 5-HT7, α1A, α1B, α1D, α2A, α2B, α2C, benzodiazepine, β1, β2, β3, GABA-A, H1, H2, H3, H4, M1, M2, M3, M4, M5, δ-opioid, κ-opioid, and µ-opioid and transporters dopamine, norepinephrine, and serotonin were evaluated.

Data set [3] addresses human cytochrome P450 3A4 (Homo sapiens, UniProt P08684). The experiment in a line: Cytochrome P450 inhibition assay, 3A4 (testosterone substrate, LC-MS/MS). The data set is classed as in vitro ADME. The note with it: expressed enzyme, read-out: IC50 CYP3A4. As to the method:
(§1) Compounds were assessed for their ability to inhibit human cytochrome P450 3A4 using testosterone as a substrate and LC-MS/MS analysis, whereas the 2D6 and 2C9 assays used fluorescent substrates and EnVision plate reader analysis. Expressed enzymes were used to minimize nonspecific binding and membrane partitioning issues ([15]).

The next data set deals with CYP2D6 (Homo sapiens, UniProt P10635). The experiment in a line: Cytochrome P450 inhibition assay, 2D6 (fluorescent substrate). The data set is classed as in vitro ADME. Conditions: expressed enzyme. As to the method: as §1
Chain of CYP2D6 (P10635 whole entry): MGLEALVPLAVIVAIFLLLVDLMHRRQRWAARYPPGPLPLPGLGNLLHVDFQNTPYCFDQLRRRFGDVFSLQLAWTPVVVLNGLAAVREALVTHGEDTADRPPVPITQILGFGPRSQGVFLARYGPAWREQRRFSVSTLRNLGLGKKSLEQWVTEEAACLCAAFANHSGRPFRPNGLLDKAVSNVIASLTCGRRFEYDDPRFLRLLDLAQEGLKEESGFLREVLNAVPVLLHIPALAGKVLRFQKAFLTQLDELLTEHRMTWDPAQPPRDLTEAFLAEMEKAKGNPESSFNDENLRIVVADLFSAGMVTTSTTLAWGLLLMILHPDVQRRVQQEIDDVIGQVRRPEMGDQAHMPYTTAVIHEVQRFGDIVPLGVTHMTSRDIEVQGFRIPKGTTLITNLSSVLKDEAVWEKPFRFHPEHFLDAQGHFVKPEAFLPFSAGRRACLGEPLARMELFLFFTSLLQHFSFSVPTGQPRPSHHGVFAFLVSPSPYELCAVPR
Data set [4] can be described thus: Aqueous solubility (pH 7.4) assay, Millipore MultiScreen filter system. The data set is classed as physicochemical. Conditions: read-out: Sol (aqueous solubility). As to the method: Compounds were assessed for their solubility at pH 7.4 using the commercially available Millipore MultiScreen Solubility filter system (Millipore, Billerica, MA). Analysis was performed by liquid chromatography-tandem mass spectrometry (LC-MS/MS).

The nature of data set [5]: Administration of antagonist in the absence of DSS. The data set is classed as in vivo, mice. The note with it: Supplemental Fig. S2.
[6] abbreviates: pH 7.4, aqueous buffer, kinetic from dmso stock.

The structures appear in SMILES notation. Converted amounts (≈) assume the structure as drawn. Like-named read-outs stand apart in the source and are kept apart here.

T1 sequence (P34969 whole entry): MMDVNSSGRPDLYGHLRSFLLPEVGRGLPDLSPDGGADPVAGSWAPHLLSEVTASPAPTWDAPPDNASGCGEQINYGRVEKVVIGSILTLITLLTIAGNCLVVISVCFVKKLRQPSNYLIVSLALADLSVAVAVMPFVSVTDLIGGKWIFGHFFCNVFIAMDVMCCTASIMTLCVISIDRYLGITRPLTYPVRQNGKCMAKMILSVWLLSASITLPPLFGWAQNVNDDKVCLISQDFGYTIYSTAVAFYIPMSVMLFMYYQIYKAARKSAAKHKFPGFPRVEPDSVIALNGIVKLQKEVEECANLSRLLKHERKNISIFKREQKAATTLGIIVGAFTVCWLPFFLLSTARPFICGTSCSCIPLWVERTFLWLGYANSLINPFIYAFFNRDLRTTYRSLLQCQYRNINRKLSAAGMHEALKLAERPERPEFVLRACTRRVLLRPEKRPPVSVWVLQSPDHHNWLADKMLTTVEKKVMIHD
Chain of human cytochrome P450 3A4 (P08684 whole entry): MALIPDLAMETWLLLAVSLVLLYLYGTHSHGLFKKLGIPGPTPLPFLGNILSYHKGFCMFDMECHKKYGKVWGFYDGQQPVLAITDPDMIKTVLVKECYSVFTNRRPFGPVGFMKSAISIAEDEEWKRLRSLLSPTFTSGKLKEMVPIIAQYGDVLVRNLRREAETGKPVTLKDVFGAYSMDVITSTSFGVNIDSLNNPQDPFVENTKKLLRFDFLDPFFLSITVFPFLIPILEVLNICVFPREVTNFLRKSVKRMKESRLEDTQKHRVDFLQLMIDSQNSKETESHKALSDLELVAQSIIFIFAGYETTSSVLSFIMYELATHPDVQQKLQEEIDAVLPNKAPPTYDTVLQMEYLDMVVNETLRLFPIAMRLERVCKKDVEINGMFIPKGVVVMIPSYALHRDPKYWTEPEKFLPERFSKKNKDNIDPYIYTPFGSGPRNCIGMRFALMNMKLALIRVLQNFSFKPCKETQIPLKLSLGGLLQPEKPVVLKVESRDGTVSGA

Broadly, the Kb is the affinity of an antagonist, worked out from how it opposes an agonist. A high value points to a less potent antagonist. For orientation: Ki means a dissociation constant, usually derived from enzyme kinetics or from competition with a known ligand. For orientation: IC50 means the concentration needed to halve the response being measured. A word on the solubility: it is how much of the substance goes into solution per volume. As to `CCC1(CC)CC(CCN2CCN(c3ccc(O)cc3)CC2)OC1=O` (stereo not shown) [MC-170073], in data set [1], the Kb turned out to be 0.018 µM. In data set [2], this compound had a Ki of more than 10 µM. The half-inhibitory concentration (IC50) (in data set [3]; against CYP2D6) was more than 10 µM throughout. In addition, the solubility in data set [4] (setting [6]) was determined as 200 µM (≈ 69.3 µg/mL); in data set [4], 168 µM (≈ 58.2 µg/mL). In addition, the “effect on body weight change, histology, or proinflammatory cytokine production” value in data set [5] is recorded as “no significant effect”.
`CCC1(CC)C[C@@H](CCN2CCN(c3ccc(O)cc3)CC2)OC1=O` [MC-230078]: the Kb in data set [1] was found to be 0.021 µM. Besides, the Ki in data set [2] is more than 10 µM. Further, the results for the half-inhibitory concentration (IC50) (in data set [3]; against CYP2D6) were 9.46 µM and more than 10 µM, respectively. The solubility in data set [4] (setting [6]) came to 200 µM (≈ 69.3 µg/mL). In addition, the “effect on body weight change, histology, or proinflammatory cytokine production” value in data set [5] is “no significant effect”.
